The source of these data is patent US20090047243A1, “COMBINATIONS FOR THE TREATMENT OF B-CELL PROLIFERATIVE DISORDERS” (priority 2007, published 2009).

The inhibition is the change of the read-out against control, counted positive when it falls.

Assay [1] concerns RPMI-8226, H929, MM.1S and MM.1R MM cell lines. Briefly: Anti-proliferation assay, statements across MM cell lines. In kind it is cell-based, human. The note with it: for rank of synergy scores among PDE inhibitors: crossed with adenosine receptor agonists; for activity and synergy of adenosine receptor agonists: RPMI-8226, H929, MM.1S and MM.1R MM cell lines. The protocol:
The MM.1S, MM.1R, H929, MOLP-8, EJM, INA-6, ANBL6, KSM-12-PE, OPM2, and RPMI-8226 multiple myeloma cell lines, as well as the Burkitt's lymphoma cell line GA-10 and the non-Hodgkin's lymphoma cell lines Farage, SU-DHL6, and Karpas 422 were cultured at 37° C. and 5% CO2 in RPMI-1640 media supplemented with 10% FBS. ANBL6 and INA-6 culture media was also supplemented with 10 ng/ml IL-6. The OCI-ly10 cell line was cultured using RPMI-1640 media supplemented with 20% human serum. MM.1S, MM.1R, OCI-ly10, Karpas 422, and SU-DHL6 cells were provided by the Dana Farber Cancer Institute. H929, RPMI-8226, GA-10, and Farage cells were from ATCC (Cat #'s CCL-155, CRL-9068, CRL-2392 and CRL-2630 respectively). MOLP-8, EJM, KSM-12-PE, and OPM2 were from DSMZ. The ANBL6 and INA-6 cell lines were provided by the M. D. Anderson Cancer Research Center.
Compounds were prepared in DMSO at 1000× the highest desired concentration. Master plates were generated consisting of serially diluted compounds in 2- or 3-fold dilutions in 384-well format. For single agent dose response curves, the master plates consisted of 9 individual compounds at 12 concentrations in 2- or 3-fold dilutions. For combination matrices, master plates consisted of individual compounds at 6 or 9 concentrations at 2- or 3-fold dilutions.
Cells were added to 384-well plates 24 hours prior to compound addition such that each well contained 2000 cells in 35 μL of media. Master plates were diluted 100× (1 μL into 100 μL) into 384-well dilution plates containing only cell culture media. 4.5 μL from each dilution plate was added to each assay plate for a final dilution of 1000×. To obtain combination data, two master plates were diluted into the assay plates. Following compound addition, assay plates were kept at 37° C. and 5% CO2 for 72 hours. Thirty microliters of ATPLite (Perkin Elmer) at room temperature was then added to each well. Final amount of ATP was quantified within 30 minutes using ATPLite luminescent read-out on an Envision 2103 Multilabel Reader (Perkin Elmer). Measurements were taken at the top of the well using a luminescence aperture and a read time of 0.1 seconds per well.
The Loewe additivity model was used to quantify combination effects. Combinations were ranked initially by Additivity Excess Volume, which is defined as ADD Volume=ΣCX, CY (Idata−ILoewe). where ILoewe(CX, CY) is the inhibition that satisfies (CX/ECX)+(CY/ECY)=1, and ECX,Y are the effective concentrations at ILoewe for the single agent curves. A “Synergy Score” was also used, where the Synergy Score S=log fX log fY ΣIdata(Idata−ILoewe), summed over all non-single-agent concentration pairs, and where log fX,Y is the natural logarithm of the dilution factors used for each single agent. This effectively calculates a volume between the measured and Loewe additive response surfaces, weighted towards high inhibition and corrected for varying dilution factors. An uncertainty σS was calculated for each synergy score, based on the measured errors for the Idata values and standard error propagation.

The test system of assay [2] is human multiple myeloma cells (MM.1S). Briefly: Anti-proliferation assay (ATPLite, 72 h). Format: cell-based. Set-up: key to synergy score / synergy (score), PDEi × HE-NECA: S = lnfX·lnfY·ΣIdata(Idata−ILoewe), volume over Loewe additivity. The note with it: for synergy (score), PDEi × HE-NECA: 6×6 cross of PDE inhibitor or PDE inhibitor mixture with HE-NECA; for inhibition at 1.17 µM: ADAC 1.17 μM; for inhibition at 3.51 µM: ADAC 3.51 μM; for inhibition at 10.5 µM: ADAC 10.5 μM; for inhibition at 31.6 µM: ADAC 31.6 μM. The essentials:
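Percent inhibition, calculated against averaged untreated wells, derives from ATPLite luminescence. Dose-response curves spanned 12 concentrations in 2- or 3-fold steps. IL-6 at 10 ng/ml was added to the ANBL6 culture medium.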
A general note: Cellular ATP, detected with luciferase, serves as a proxy for viable cell number.

The mark [3] stands for this setting: PDE inhibitor crossed with (S) ENBA, MM.1S.
Setting [4] is: PDE inhibitor crossed with Chloro-IB-MECA, MM.1S.
The mark [5] stands for this setting: PDE inhibitor crossed with HE-NECA, MM.1S.
Where [6] appears, read: in combination with adenosine receptor agonist CGS-21680, MM.1S.
[7] abbreviates: in combination with adenosine receptor agonist HE-NECA, MM.1S.
[8] abbreviates: in combination with adenosine receptor agonist regadenoson, MM.1S.
The mark [9] stands for this setting: Homo sapiens, MM1.S, 10 ng/mL IL-6, Trequinsin conc. (μM), read-out: percent inhibition of ATP in MM.1S cells.
Setting [10] is: Homo sapiens, MM1.S, no IL-6, Trequinsin conc. (μM), read-out: percent inhibition of ATP in MM.1S cells.

The structures appear in SMILES notation. Where a name gives a salt, the structure may show the parent alone. Read-outs that look alike come from different tables or passages of the source.

`COc1cc(-c2ccc(=O)[nH]n2)ccc1OC(F)F` [Zardaverine, 6-(4-(difluoromethoxy)-3-methoxyphenyl)-3(2H)-Pyridazinone]: the “rank of synergy scores among PDE inhibitors” value in assay [1] is on record as “highest synergy scores”. In addition, in assay [2] (MM.1S), the “synergy (score), PDEi × HE-NECA” value is given as 4.39. In addition, in assay [2] (Homo sapiens, MM1.S, Zardaverine 1.89 μM, Cl-IB-MECA conc. (μM), read-out: Percent inhibition of ATP in MM.1S cells), the inhibition at 1.89 µM was 0.11%. Also, the inhibition at 3.79 µM in assay [2] (Homo sapiens, MM1.S, Zardaverine 3.79 μM, Cl-IB-MECA conc. (μM), read-out: Percent inhibition of ATP in MM.1S cells) was -1.8%. In addition, the inhibition at 7.58 µM in assay [2] (Homo sapiens, MM1.S, Zardaverine 7.58 μM, Cl-IB-MECA conc. (μM), read-out: Percent inhibition of ATP in MM.1S cells) amounted to 13%. Also, in assay [2] (Homo sapiens, MM1.S, Zardaverine 15.2 μM, Cl-IB-MECA conc. (μM), read-out: Percent inhibition of ATP in MM.1S cells), the inhibition at 15.2 µM came out at 5.1%. Further, the inhibition at 30.3 µM in assay [2] (Homo sapiens, MM1.S, Zardaverine 30.3 μM, Cl-IB-MECA conc. (μM), read-out: Percent inhibition of ATP in MM.1S cells) amounted to 14%. The synergy score is listed as 2.59 in assay [2] (setting [3]); 3.71 in assay [2] (setting [4]); 4.39 in assay [2] (setting [5]); 3.64 in assay [2] (setting [6]); 4.39 in assay [2] (setting [7]); 1.45 in assay [2] (setting [8]).
For `CCCCC#Cc1nc(N)c2ncn([C@@H]3O[C@H](C(=O)NCC)[C@@H](O)[C@H]3O)c2n1` [HE-NECA, hexynyladenosine-5′-N-ethylcarboxamide], the “activity and synergy of adenosine receptor agonists” value in assay [1] was “active and synergistic”. The “percent inhibition of ATP in MM.1S cells” value in assay [2] (HE-NECA 0.0251 μM alone (trequinsin 0), 72 h) is reported as 78%; in assay [2] (HE-NECA 0.0752 μM alone (trequinsin 0), 72 h) it was 79%; in assay [2] (HE-NECA 0.226 μM alone (trequinsin 0), 72 h), 83%; in assay [2] (HE-NECA 0.677 μM alone (trequinsin 0), 72 h) it was 80%; in assay [2] (HE-NECA 2.03 μM alone (trequinsin 0), 72 h), 86%.
On to `COc1cc2c(cc1OC)-c1cc(=Nc3c(C)cc(C)cc3C)n(C)c(=O)n1CC2` [Trequinsin hydrochloride, 2,3,6,7-tetrahydro-9,10-dimethoxy-3-methyl-2-((2,4,6-trimethylphenyl)imino)-4H-pyrimido(6,1-a)isoquinolin-4-one], for which the “rank of synergy scores among PDE inhibitors” value in assay [1] is listed as “highest synergy scores”. The “synergy (score), PDEi × HE-NECA” value in assay [2] (MM.1S) worked out at 5.7. The inhibition at 0.377 µM in assay [2] (Homo sapiens, MM1.S, 10 ng/mL IL-6, Trequinsin 0.377 μM, HE-NECA conc. (nM), read-out: percent inhibition of ATP in MM.1S cells) is -1.2%; in assay [2] (Homo sapiens, MM1.S, 72 h, trequinsin 0.377 μM alone (HE-NECA 0), 72 h, read-out: Percent inhibition of ATP in MM.1S cells), 7.4%. The inhibition at 1.13 µM in assay [2] (Homo sapiens, MM1.S, 10 ng/mL IL-6, Trequinsin 1.13 μM, HE-NECA conc. (nM), read-out: percent inhibition of ATP in MM.1S cells) was 5.1%; in assay [2] (Homo sapiens, MM1.S, 72 h, trequinsin 1.13 μM alone (HE-NECA 0), 72 h, read-out: Percent inhibition of ATP in MM.1S cells), 0.96%. For the same compound, the inhibition at 3.39 µM in assay [2] (Homo sapiens, MM1.S, 10 ng/mL IL-6, Trequinsin 3.39 μM, HE-NECA conc. (nM), read-out: percent inhibition of ATP in MM.1S cells) turned out to be 8.9%; in assay [2] (Homo sapiens, MM1.S, 72 h, trequinsin 3.39 μM alone (HE-NECA 0), 72 h, read-out: Percent inhibition of ATP in MM.1S cells), 10%. Besides, in assay [2] (Homo sapiens, MM1.S, 10 ng/mL IL-6, Trequinsin 10.2 μM, HE-NECA conc. (nM), read-out: percent inhibition of ATP in MM.1S cells), the inhibition at 10.2 µM turned out to be 26%. Further, the inhibition at 30.5 µM in assay [2] (Homo sapiens, MM1.S, 10 ng/mL IL-6, Trequinsin 30.5 μM, HE-NECA conc. (nM), read-out: percent inhibition of ATP in MM.1S cells) was 95%; in assay [2] (Homo sapiens, MM1.S, 72 h, trequinsin 30.5 μM alone (HE-NECA 0), 72 h, read-out: Percent inhibition of ATP in MM.1S cells), 68%. Further, in assay [2] (Homo sapiens, MM1.S, 72 h, trequinsin 10.17 μM alone (HE-NECA 0), 72 h, read-out: Percent inhibition of ATP in MM.1S cells), the inhibition at 10.17 µM was found to be 26%. In addition, the synergy score stood at 4.56 in assay [2] (setting [3]); 6.62 in assay [2] (PDE inhibitor crossed with ADAC, MM.1S); 5.95 in assay [2] (setting [4]); 7.85 in assay [2] (setting [5]); 6.619 in assay [2] (in combination with adenosine receptor agonist ADAC, MM.1S); 6.26 in assay [2] (setting [6]). The synergy score in assay [2] (setting [7]) came out at 7.235; in assay [2] (setting [8]), 1.85.
Take `NCCNC(=O)Cc1ccc(NC(=O)Cc2ccc(Nc3ncnc4c3ncn4[C@@H]3O[C@H](CO)[C@@H](O)[C@H]3O)cc2)cc1` [ADAC, N-(4-(2-((4-(2-((2-aminoethyl)amino)-2-oxoethyl)phenyl)amino)-2-oxoethyl)phenyl)-Adenosine]: the “activity and synergy of adenosine receptor agonists” value in assay [1] is “active and synergistic”. Further, in assay [2] (setting [9]), the inhibition at 1.17 µM is 79%, the inhibition at 3.51 µM was 81%, the inhibition at 10.5 µM stood at 85% and the inhibition at 31.6 µM worked out at 83%. Besides, in assay [2] (Homo sapiens, MM1.S, 10 ng/mL IL-6, ADAC […], Trequinsin conc. (μM), read-out: percent inhibition of ATP in MM.1S cells), the inhibition at […] came out at 61%. For the same compound, in assay [2] (Homo sapiens, MM1.S, ADAC 1.975 μM, Trequinsin Hydrochloride conc. (μM), read-out: Percent inhibition of ATP in MM.1S cells), the inhibition at 1.975 µM was 37%. Also, the inhibition at 3.95 µM in assay [2] (Homo sapiens, MM1.S, ADAC 3.95 μM, Trequinsin Hydrochloride conc. (μM), read-out: Percent inhibition of ATP in MM.1S cells) amounted to 49%. In addition, the inhibition at 15.8 µM in assay [2] (Homo sapiens, MM1.S, ADAC 15.8 μM, Trequinsin Hydrochloride conc. (μM), read-out: Percent inhibition of ATP in MM.1S cells) worked out at 66%. The inhibition at 31.6 µM in assay [2] (Homo sapiens, MM1.S, Trequinsin Hydrochloride conc. (μM), read-out: Percent inhibition of ATP in MM.1S cells) amounted to 60%. In assay [2] (setting [10]), the inhibition at 1.17 µM was 49%, the inhibition at 3.51 µM turned out to be 57%, the inhibition at 10.5 µM came to 66% and the inhibition at 31.6 µM was 60%.
